In PMC12892976, “Alkylation-based optimization of antifungal FPPS inhibitors yields a potent, broad-spectrum lipophilic zoledronate derivative” (mBio, 2025):
In brackets after ≈: the same amount, converted by molar mass.

How the values were obtained:
[1] = system: Cryptococcus deneoformans; experiment: MIC broth microdilution (CLSI); type: cell-based; details: Cryptococcus deneoformans JEC21
Experimental: (§2) Antifungal susceptibility was determined by broth microdilution according to the CLSI guidelines described in M27-Ed4 ([16]).

Nannizzia nana = experiment: checkerboard drug interaction (FICI, MICc); type: cell-based;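 further: simplified diagonal checkerboard screen pairing antifungals with FPPS inhibitors, FICI calculated under the Loewe additivity model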
Experimental: (§3) Drug interactions between antifungals and FPPS inhibitors were investigated using a simplified checkerboard diagonal screening method ([45]). […] FICIs were determined according to the Loewe additivity model ([17]).

[2] = system: Cryptococcus deuterogattii biofilms; experiment: biofilm XTT reduction assay (SIC80, SFICI); details: for SICc: Cryptococcus deuterogattii; for SIC80: agent alone, Cryptococcus deuterogattii R265
Experimental: (§4) Biofilms of Cryptococcus were seeded in DMEM, and all other species were seeded in RPMI-1640.

Candida dubliniensis = experiment: checkerboard drug interaction (FICI, MICc); type: cell-based;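 further: simplified diagonal checkerboard screen pairing antifungals with FPPS inhibitors, FICI calculated under the Loewe additivity model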
Experimental: as §3

[3] = system: Aspergillus fumigatus biofilms; experiment: biofilm XTT reduction assay (SIC80, SFICI); type: cell-based; details: for SICc: Aspergillus fumigatus; for SIC80: agent alone, Aspergillus fumigatus ATCC 204305
Text: (§1) […]. […] […].

[4] = system: Aspergillus flavus biofilms; experiment: biofilm XTT reduction assay (SIC80, SFICI); type: cell-based; details: for SICc: Aspergillus flavus; for SIC80: agent alone, Aspergillus flavus ATCC 204304
Text: as §1

[5] = system: Candida glabrata biofilms; experiment: biofilm XTT reduction assay (SIC80, SFICI); type: cell-based; details: for SICc: Candida glabrata; for SIC80: agent alone, Candida glabrata CBS138
Text: as §1

[6] = system: Cryptococcus bacillisporus; experiment: MIC broth microdilution (CLSI); type: cell-based; details: Cryptococcus bacillisporus NIH179
Experimental: as §2

Lomentospora prolificans = experiment: MIC broth microdilution (CLSI); type: cell-based; details: Lomentospora prolificans 80-16-101-2445
Experimental: as §2

Epidermophyton floccosum = experiment: MIC broth microdilution (CLSI); type: cell-based; details: Epidermophyon floccosum R-113
Experimental: as §2

Aspergillus felis = experiment: checkerboard drug interaction (FICI, MICc); type: cell-based;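 further: simplified diagonal checkerboard screen pairing antifungals with FPPS inhibitors, FICI calculated under the Loewe additivity model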
Experimental: as §3

Candida tropicalis [7] = experiment: MIC broth microdilution (CLSI); type: cell-based; details: Candida tropicalis M230640
Experimental: as §2

Fusarium oxysporum [8] = experiment: MIC broth microdilution (CLSI); type: cell-based; details: Fusarium oxysporum 07-200-3012
Experimental: as §2

Aspergillus terreus = experiment: checkerboard drug interaction (FICI, MICc); type: cell-based;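 further: simplified diagonal checkerboard screen pairing antifungals with FPPS inhibitors, FICI derived by the Loewe additivity model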
Experimental: as §3

Trichophyton soudanense [9] = experiment: MIC broth microdilution (CLSI); details: Trichophyton soudanense R-167
Experimental: as §2

[10] = system: Saccharomyces cerevisiae biofilms; experiment: biofilm XTT reduction assay (SIC80, SFICI); type: cell-based; details: for SICc: Saccharomyces cerevisiae; for SIC80: agent alone, Saccharomyces cerevisiae S288c
Experimental: as §4

Fusarium oxysporum [11] = experiment: checkerboard drug interaction (FICI, MICc); type: cell-based;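 further: simplified diagonal checkerboard screen pairing antifungals with FPPS inhibitors, FICI calculated under the Loewe additivity model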
Experimental: as §3

[12] = system: Aspergillus frankstonensis; experiment: checkerboard drug interaction (FICI, MICc);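 further: simplified diagonal checkerboard screen pairing antifungals with FPPS inhibitors, FICI calculated using the Loewe additivity model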
Experimental: as §3

Aspergillus niger = experiment: checkerboard drug interaction (FICI, MICc); type: cell-based
Experimental: as §3

Candida tropicalis [13] = experiment: checkerboard drug interaction (FICI, MICc); type: cell-based;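 further: simplified diagonal checkerboard screen of antifungal plus FPPS inhibitor combinations, with FICI computed by the Loewe additivity model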
Experimental: as §3

[14] = system: Cryptococcus neoformans biofilms; experiment: biofilm XTT reduction assay (SIC80, SFICI); details: for SICc: Cryptococcus neoformans; for SIC80: agent alone, Cryptococcus neoformans H99
Experimental: as §4

Trichophyton soudanense [15] = experiment: checkerboard drug interaction (FICI, MICc); type: cell-based;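 further: simplified diagonal checkerboard screen pairing antifungals with FPPS inhibitors, FICI computed under the Loewe additivity model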
Experimental: as §3

Mucor circinelloides = experiment: checkerboard drug interaction (FICI, MICc); type: cell-based
Experimental: as §3

Candida auris = experiment: checkerboard drug interaction (FICI, MICc); type: cell-based;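 further: simplified diagonal checkerboard screen pairing antifungals with FPPS inhibitors, with FICI computed under the Loewe additivity model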
Experimental: as §3

[16] = system: Trichophyton rubrum biofilms; experiment: biofilm XTT reduction assay (SIC80, SFICI); type: cell-based; details: biofilm; for SICc: Trichophyton rubrum; for SIC80: agent alone, Trichophyton rubrum 213
Experimental: as §4

[17] = system: Candida albicans biofilms; experiment: biofilm XTT reduction assay (SIC80, SFICI); details: for SICc: Candida albicans; for SIC80: agent alone, Candida albicans SC5314
Experimental: as §4

[18] = system: Aspergillus frankstonensis; experiment: MIC broth microdilution (CLSI); type: cell-based; details: Aspergillus frankstonensis DTO 341-F3
Experimental: as §2

Cryptococcus tetragattii = experiment: MIC broth microdilution (CLSI); type: cell-based; details: Cryptococcus tetragattii WM779
Experimental: as §2

Candida parapsilosis = experiment: checkerboard drug interaction (FICI, MICc); type: cell-based;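 further: simplified diagonal checkerboard screen pairing antifungals with FPPS inhibitors, with FICI computed under the Loewe additivity model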
Experimental: as §3

Trichophyton tonsurans = experiment: MIC broth microdilution (CLSI); details: Trichophyton tonsurans R-168
Experimental: as §2

Compound: CCC(C)n1ncn(-c2ccc(N3CCN(c4ccc(OCC5COC(Cn6cncn6)(c6ccc(Cl)cc6Cl)O5)cc4)CC3)cc2)c1=O (centres unmarked) [ITR, itraconazole]
- MIC / MEC [1]: 0.06 µg/mL (≈ 0.085 µM)
- antifungal MICc (Nannizzia nana; in combination with 10-ZOL): 0.25
- antifungal MICc (Nannizzia nana; in combination with ZOL): 0.13
- SICc ([2]; ITR:10-ZOL combination): 64 µg/mL
- SIC80 [2]: 128 µg/mL
- antifungal MICc (Candida dubliniensis; in combination with 10-ZOL): 0.033
- antifungal MICc (Candida dubliniensis; in combination with ZOL): 0.03125
- SICc ([3]; ITR:10-ZOL combination): 128 µg/mL
- SIC80 [3]: 256 µg/mL
- SICc ([4]; ITR:10-ZOL combination): 64 µg/mL
- SIC80 [4]: 128 µg/mL
- SICc ([5]; ITR:10-ZOL combination): 128 µg/mL
- SIC80 [5]: 256 µg/mL
- MIC / MEC [6]: 0.06 µg/mL (≈ 0.085 µM)
- MIC / MEC (Lomentospora prolificans): 4 µg/mL (≈ 5.67 µM)
- MIC / MEC (Epidermophyton floccosum): 1 µg/mL (≈ 1.42 µM)
- antifungal MICc (Aspergillus felis; in combination with 10-ZOL): 0.5
- antifungal MICc (Aspergillus felis; in combination with ZOL): 1
- MIC / MEC (Candida tropicalis [7]): 0.25 µg/mL (≈ 0.354 µM)
- MIC / MEC (Fusarium oxysporum [8]): 4 µg/mL (≈ 5.67 µM)
- antifungal MICc (Aspergillus terreus; in combination with 10-ZOL): 0.25
- antifungal MICc (Aspergillus terreus; in combination with ZOL): 0.13
- MIC / MEC (Trichophyton soudanense [9]): 0.5 µg/mL (≈ 0.709 µM)
- SICc ([10]; ITR:10-ZOL combination): 16 µg/mL
- SIC80 [10]: 32 µg/mL
- antifungal MICc (Fusarium oxysporum [11]; in combination with 10-ZOL): 1
- antifungal MICc (Fusarium oxysporum [11]; in combination with ZOL): 1
- antifungal MICc ([12]; in combination with 10-ZOL): 1
- antifungal MICc ([12]; in combination with ZOL): 2
- antifungal MICc (Aspergillus niger; in combination with 10-ZOL): 0.25
- antifungal MICc (Aspergillus niger; in combination with ZOL): 1
- antifungal MICc (Candida tropicalis [13]; in combination with 10-ZOL): 0.125
- antifungal MICc (Candida tropicalis [13]; in combination with ZOL): 0.062
- SICc ([14]; ITR:10-ZOL combination): 32 µg/mL
- SIC80 [14]: 64 µg/mL
- antifungal MICc (Trichophyton soudanense [15]; in combination with 10-ZOL): 0.25
- antifungal MICc (Trichophyton soudanense [15]; in combination with ZOL): 0.25
- antifungal MICc (Mucor circinelloides; in combination with 10-ZOL): 0.25
- antifungal MICc (Mucor circinelloides; in combination with ZOL): 0.06
- antifungal MICc (Candida auris; in combination with 10-ZOL): 1
- antifungal MICc (Candida auris; in combination with ZOL): 1
- SICc ([16]; ITR:10-ZOL combination): 64 µg/mL
- SIC80 [16]: >256 µg/mL
- SICc ([17]; ITR:10-ZOL combination): 128 µg/mL
- SIC80 [17]: 256 µg/mL
- MIC / MEC [18]: 2 µg/mL (≈ 2.83 µM)
- MIC / MEC (Cryptococcus tetragattii): 0.5 µg/mL (≈ 0.709 µM)
- antifungal MICc (Candida parapsilosis; in combination with 10-ZOL): 0.125
- antifungal MICc (Candida parapsilosis; in combination with ZOL): 0.062
- MIC / MEC (Trichophyton tonsurans): 1 µg/mL (≈ 1.42 µM)

Compound: CC(=O)N1CCN(c2ccc(OCC3COC(Cn4ccnc4)(c4ccc(Cl)cc4Cl)O3)cc2)CC1 (centres unmarked) [KET, ketoconazole]
- MIC / MEC [1]: 0.13 µg/mL (≈ 0.245 µM)
- antifungal MICc (Nannizzia nana; in combination with 10-ZOL): 0.5
- antifungal MICc (Nannizzia nana; in combination with ZOL): 0.13
- SICc ([2]; KET:10-ZOL combination): 32 µg/mL
- SIC80 [2]: 256 µg/mL
- antifungal MICc (Candida dubliniensis; in combination with 10-ZOL): 0.006
- antifungal MICc (Candida dubliniensis; in combination with ZOL): 0.005
- SICc ([3]; KET:10-ZOL combination): 64 µg/mL
- SIC80 [3]: 256 µg/mL
- SICc ([4]; KET:10-ZOL combination): 64 µg/mL
- SIC80 [4]: 128 µg/mL
- SICc ([5]; KET:10-ZOL combination): 64 µg/mL
- SIC80 [5]: 256 µg/mL
- MIC / MEC [6]: 0.25 µg/mL (≈ 0.47 µM)
- MIC / MEC (Lomentospora prolificans): 4 µg/mL (≈ 7.53 µM)
- MIC / MEC (Epidermophyton floccosum): 2 µg/mL (≈ 3.76 µM)
- antifungal MICc (Aspergillus felis; in combination with 10-ZOL): 4
- antifungal MICc (Aspergillus felis; in combination with ZOL): 8
- MIC / MEC (Candida tropicalis [7]): 8 µg/mL (≈ 15.1 µM)
- MIC / MEC (Fusarium oxysporum [8]): 16 µg/mL (≈ 30.1 µM)
- antifungal MICc (Aspergillus terreus; in combination with 10-ZOL): 2
- antifungal MICc (Aspergillus terreus; in combination with ZOL): 0.25
- MIC / MEC (Trichophyton soudanense [9]): 4 µg/mL (≈ 7.53 µM)
- SICc ([10]; KET:10-ZOL combination): 16 µg/mL
- SIC80 [10]: 32 µg/mL
- antifungal MICc (Fusarium oxysporum [11]; in combination with 10-ZOL): 16
- antifungal MICc (Fusarium oxysporum [11]; in combination with ZOL): 4
- antifungal MICc ([12]; in combination with 10-ZOL): 1
- antifungal MICc ([12]; in combination with ZOL): 4
- antifungal MICc (Aspergillus niger; in combination with 10-ZOL): 2
- antifungal MICc (Aspergillus niger; in combination with ZOL): 4
- antifungal MICc (Candida tropicalis [13]; in combination with 10-ZOL): 4
- antifungal MICc (Candida tropicalis [13]; in combination with ZOL): 0.5
- SICc ([14]; KET:10-ZOL combination): 16 µg/mL
- SIC80 [14]: 32 µg/mL
- antifungal MICc (Trichophyton soudanense [15]; in combination with 10-ZOL): 0.5
- antifungal MICc (Trichophyton soudanense [15]; in combination with ZOL): 1
- antifungal MICc (Mucor circinelloides; in combination with 10-ZOL): 4
- antifungal MICc (Mucor circinelloides; in combination with ZOL): 8
- antifungal MICc (Candida auris; in combination with 10-ZOL): 1
- antifungal MICc (Candida auris; in combination with ZOL): 1
- SICc ([16]; KET:10-ZOL combination): 64 µg/mL
- SIC80 [16]: 256 µg/mL
- SICc ([17]; KET:10-ZOL combination): 32 µg/mL
- SIC80 [17]: 64 µg/mL
- MIC / MEC [18]: 8 µg/mL (≈ 15.1 µM)
- MIC / MEC (Cryptococcus tetragattii): 0.5 µg/mL (≈ 0.941 µM)
- antifungal MICc (Candida parapsilosis; in combination with 10-ZOL): 0.015
- antifungal MICc (Candida parapsilosis; in combination with ZOL): 0.03
- MIC / MEC (Trichophyton tonsurans): 4 µg/mL (≈ 7.53 µM)

Compound: C[C@@H](c1ncncc1F)[C@](O)(Cn1cncn1)c1ccc(F)cc1F [VOR]
- MIC / MEC [1]: 0.06 µg/mL (≈ 0.172 µM)
- antifungal MICc (Nannizzia nana; in combination with 10-ZOL): 0.0625
- antifungal MICc (Nannizzia nana; in combination with ZOL): 0.0625
- antifungal MICc (Candida dubliniensis; in combination with 10-ZOL): 0.033
- antifungal MICc (Candida dubliniensis; in combination with ZOL): 0.0125
- MIC / MEC [6]: 0.06 µg/mL (≈ 0.172 µM)
- MIC / MEC (Lomentospora prolificans): 16 µg/mL (≈ 45.8 µM)
- MIC / MEC (Epidermophyton floccosum): 0.25 µg/mL (≈ 0.716 µM)
- antifungal MICc (Aspergillus felis; in combination with 10-ZOL): 0.5
- antifungal MICc (Aspergillus felis; in combination with ZOL): 0.5
- MIC / MEC (Candida tropicalis [7]): 0.13 µg/mL (≈ 0.372 µM)
- MIC / MEC (Fusarium oxysporum [8]): 4 µg/mL (≈ 11.5 µM)
- antifungal MICc (Aspergillus terreus; in combination with 10-ZOL): 0.25
- antifungal MICc (Aspergillus terreus; in combination with ZOL): 0.125
- MIC / MEC (Trichophyton soudanense [9]): 0.13 µg/mL (≈ 0.372 µM)
- antifungal MICc (Fusarium oxysporum [11]; in combination with 10-ZOL): 1
- antifungal MICc (Fusarium oxysporum [11]; in combination with ZOL): 4
- antifungal MICc ([12]; in combination with 10-ZOL): 4
- antifungal MICc ([12]; in combination with ZOL): 2
- antifungal MICc (Aspergillus niger; in combination with 10-ZOL): 0.13
- antifungal MICc (Aspergillus niger; in combination with ZOL): 1
- antifungal MICc (Candida tropicalis [13]; in combination with 10-ZOL): 0.032
- antifungal MICc (Candida tropicalis [13]; in combination with ZOL): 0.0625
- antifungal MICc (Trichophyton soudanense [15]; in combination with 10-ZOL): 0.063
- antifungal MICc (Trichophyton soudanense [15]; in combination with ZOL): 0.03125
- antifungal MICc (Mucor circinelloides; in combination with 10-ZOL): 4
- antifungal MICc (Mucor circinelloides; in combination with ZOL): 4
- antifungal MICc (Candida auris; in combination with 10-ZOL): 0.25
- antifungal MICc (Candida auris; in combination with ZOL): 1
- MIC / MEC [18]: 2 µg/mL (≈ 5.73 µM)
- MIC / MEC (Cryptococcus tetragattii): 0.13 µg/mL (≈ 0.372 µM)
- antifungal MICc (Candida parapsilosis; in combination with 10-ZOL): 0.063
- antifungal MICc (Candida parapsilosis; in combination with ZOL): 0.125
- MIC / MEC (Trichophyton tonsurans): 0.13 µg/mL (≈ 0.372 µM)
